The subject of data set [1] is histamine. The note with it: human pregnancy (title of cited paper); cited from earlier work.
Data set [2] concerns glucose-mediated cross-linking of proteins. The conditions noted are these: cited from earlier work.
The test system of data set [3] is histaminase. The conditions noted are these: cited from earlier work.
Data set [4] has as its system diamine oxidase. The conditions noted are these: cited from earlier work.
The nature of data set [5]: elimination half-life of aminoguanidine in plasma of patients (HPLC assay) for measurement of kidney function. It counts as in vivo, human. The note with it: 300 mg oral aminoguanidine hydrochloride; for half-life: human, plasma, po, 300 mg, plasma at 10, 14, 18 hours, read-out: AG T1/2 (converted). As for the experimental part: A) A single 300 mg dose of aminoguanidine hydrochloride is administered to the patient. Administration may be either by a capsule or tablet taken orally, or by a liquid syrup, elixir or the like.
B) After administration of the aminoguanidine or analog material, periodic collection of plasma samples is then conducted. For example, minimum 3 ml blood samples may be collected, and in the instance where aminoguanidine is administered in dry form as in a pill, the first sample may be taken 10 hours after ingestion, the second sample may be taken 14 hours after ingestion, and the third sample may be taken 18 hours after ingestion. In the instance where a liquid is administered, a similar regimen may be observed.
C) The samples collected at the intervals indicated may then be processed in accordance with the method of the present invention to determine aminoguanidine concentration.
D) Thereafter, the elimination half-life (T1/2) may be determined. Particularly, the data may be interpreted and determined by reference to the relationship wherein the slope of the logarithmic decline of plasma concentration over time is identified as the elimination rate (Kelim). Elimination half-life (T1/2) is related to Kelim by the following equation: [formula]
To a 0.5 mL plasma sample was added 0.5 mL of the working internal standard solution (10 μg/mL N-ethyl aminoguanidine tosylate in 7.5% trichloracetic acid). After vortexing (10 sec.) and centrifugation in a microfuge (Eppendorf, 14,000 rpm, 10 min.), the supernatant was decanted into a clean screw top culture tube containing 0.1 mL of an aqueous (10 mg/mL) solution of reacting agent (6-methyl-2-pyridine-carboxaldehyde). The sample was then capped tightly and reacted in a heating block (95°-100° C.) for 10 minutes. After cooling, i the sample was transferred into an HPLC vial, from which a 200 μL aliquot was injected for HPLC analysis.
A Waters Associates Model 510 pump was utilized with a radial compression column (Waters Novapak CN, 8 mm ×10 cm, 4 μm particle size) and a cyano (Waters Resolve Guard-Pak CN) precolumn. Detection was performed using a variable ultraviolet detector (Waters 484) at 302 nm. The mobile phase consisted of (volume to volume) 15% acetonitrile: 10% methanol: 75% of 0.01 M each of 1heptanesulfonic acid and sodium phosphate monobasic. Flow rate was maintained isocratically at 2.0 mL/min. at ambient temperature. Sequential automatic injections were made via a programmable sampler (Waters WISP 712).
All data acquisitions were performed with a Waters Maxima 820 system. A linear test squares analysis of the ratios of drug peak height to internal standard peak height versus concentrations added to human plasma in standards constituted daily instrumentation standardization. Interpolation from the linear regression line determined concentrations of aminoguanidine in quality control and unknown assayed samples
[…] After administration of this total dosage, plasma samples were collected from each of the patients at intervals of 10 hours, 14 hours and 18 hours after administration. The plasma samples were then taken and subjected to the assay of the present invention, in accordance with the protocol utilized in Example 1.
Accordingly, the samples were first combined with a quantity of a working internal standard solution of N-ethyl aminoguanidine tosylate in 7.5 percent trichloroacetic acid. The resulting samples were vortexed for 10 seconds and centrifuged for a period of 10 minutes at a speed of 14,000 rpm. The supernatants were then decanted into a culture tube containing 0 1 ml of an aqueous solution ([…]) of 6-methyl picolinaldehyde. The samples were then tightly capped and reacted in a heating block for a period of 10 minutes, and after cooling, were transferred into HPLC vials from which aliquots were then injected for HPLC analysis.
A radial compression chromatographic column was utilized with an isocratic flow rate and under paired-ion conditions. […]

“Also recorded” adds a separate entry of the source. Where two headings read alike, the source gives them in different places.

For `N=C(N)NN` [aminoguanidine], the levels of histamine result in data set [1] was “increase levels of histamine”. In addition, the “inhibition of glucose-mediated cross-linking of proteins” value in data set [2] is recorded as “inhibitor of glucose-mediated cross-linking of proteins”. For the same molecule, in data set [3], the “inhibitory action on the enzyme histaminase” value is given as “inhibitory action”. Also, in data set [4], the “inhibition of diamine oxidase” value is “selective inhibitor”. Besides, the “relationship between aminoguanidine half-life and kidney function (GFR), in words” value in data set [5] was “fairly consistent and linear relationship; also recorded: excellent linear correlation; also recorded: inverse relationship”. Moreover, the “correlation coefficient r of aminoguanidine T1/2 with GFR” value in data set [5] (n=18) was determined as 0.875. Besides, the half-life in data set [5] (patient 1, GFR 12.8) is 1480 min; in data set [5] (patient 2, GFR 52.4) it was 851 min; in data set [5] (patient 3, GFR 116.3) it was 230 min; in data set [5] (patient 4, GFR 44.1), 1300 min; in data set [5] (patient 5, GFR 31.1) it was 1140 min; in data set [5] (patient 6, GFR 80.5), 407 min. For the same molecule, the half-life is 890 min in data set [5] (patient 7, GFR 26.7); 1490 min in data set [5] (patient 8, GFR 12.1); 284 min in data set [5] (patient 9, GFR 117.2); 236 min in data set [5] (patient 10, GFR 148.9); 409 min in data set [5] (patient 11, GFR 111.9); 365 min in data set [5] (patient 12, GFR 103.8). In addition, the half-life in data set [5] (patient 13, GFR 41.6) is 895 min; in data set [5] (patient 14, GFR 39.2), 572 min; in data set [5] (patient 15, GFR 113.2), 289 min; in data set [5] (patient 16, GFR 82.2), 362 min; in data set [5] (patient 18, GFR 131.3), 423 min; in data set [5] (patient 19, GFR 131.1), 388 min.

Source of the values: US5108930A, “Aminoguanidine assay and applications thereof” (Alteon Inc., priority 1990, dated 1992).
